This note sets out measurements from US8222404B2, “[1,2,4]Thiadiazin-3-yl acetic acid compound and methods of making the acetic acid compound” (Anadys Pharmaceuticals, Inc., priority 2008, dated 2012).

As a reminder, the EC50 is the concentration at which the effect is half-maximal. Lower therefore signals higher potency in that assay.

This experiment has as its system HCV Huh-luc/neo-ET replicon cells. Nature of the experiment: Luciferase-Based HCV Replicon Assay (EC50 (1b)). Particulars: Hepatitis C virus, 72 hours exposure, luciferase activity. The experiment is classed as cell-based. On the procedure:
Luciferase-Based HCV Replicon Assay Protocol (EC50 (1b))
The cell culture component of the assay was performed essentially as described by Bartenschlager et al., Hepatology 2002, 35, 694-703, wherein exponentially growing HCV Huh-luc/neo-ET replicon cells were seeded at 6×10^3 cells/well in 96 well assay plate. 24 hours later the cells were treated with various concentrations of compound in triplicate. After 72 hours exposure to the compound, the luciferase activity in the wells was determined using Bright-Glo reagent (Promega, Madison, Wis.) with a luminometer (Wallac 1420 Multilabel HTS Counter Victor 2). The background control was replicon cells treated with 100 nM BILN-2061, an inhibitor of the HCV protease. % Inhibition was determined for each compound concentration in relation to the negative (no compound) control to calculate the EC50 (1b).
The molecule `CS(=O)(=O)NCc1csc2c1S(=O)(=O)N=C(C1=C(O)C3(CC3)CN(Cc3ccc(F)cc3)C1=O)N2` [Example 11, N-{3-[5-(4-Fluoro-benzyl)-8-hydroxy-6-oxo-5-aza-spiro[2.5]oct-7-en-7-yl]-1,1-dioxo-1,4-dihydro-1λ^6-thieno[2,3-e][1,2,4]thiadiazin-7-ylmethyl}-methanesulfonamide] had a concentration giving a half-maximal response (EC50) of more than 1000 nM. For the molecule `CS(=O)(=O)NCc1csc2c1S(=O)(=O)N=C(C1=C(O)[C@@H]3[C@@H]4CC[C@@H](C4)[C@@H]3N(Cc3ccsc3)C1=O)N2` [Example 58, N-[3-((1S,2S,7R,8R)-6-Hydroxy-4-oxo-3-thiophen-3-ylmethyl-3-aza-tricyclo[6.2.1.0^2,7]undec-5-en-5-yl)-1,1-dioxo-1,4-dihydro-1λ^6-thieno[2,3-e][1,2,4]thiadiazin-7-ylmethyl]-methanesulfonamide], the EC50 fell in the range of 5 to 20 nM. Take `CS(=O)(=O)NCc1csc2c1S(=O)(=O)N=C(C1=C(O)C3CCCCC3N(Cc3ccccc3)C1=O)N2` (racemic) [Example 130, (rac-cis)-N-[3-(1-Benzyl-4-hydroxy-2-oxo-1,2,4a,5,6,7,8,8a-octahydro-quinolin-3-yl)-1,1-dioxo-1,4-dihydro-1λ^6-thieno[2,3-e][1,2,4]thiadiazin-7-ylmethyl]-methanesulfonamide]: the EC50 lay in the range of 100 to 1000 nM. The result for `CS(=O)(=O)NCc1csc2c1S(=O)(=O)N=C(C1=C(O)C3CCCCC3N(Cc3ccsc3)C1=O)N2` (racemic) [Example 135, (rac-cis)-N-[3-(4-Hydroxy-2-oxo-1-thiophen-3-ylmethyl-1,2,4a,5,6,7,8,8a-octahydro-quinolin-3-yl)-1,1-dioxo-1,4-dihydro-1λ^6-thieno[2,3-e][1,2,4]thiadiazin-7-ylmethyl]-methanesulfonamide] reads more than 1000 nM; that for `CS(=O)(=O)NCc1csc2c1S(=O)(=O)N=C(C1=C(O)C3C4C=CC(C4)C3N(Cc3ccc(F)cc3)C1=O)N2` (racemic) [Example 47, (rac-di-exo)-N-{3-[3-(4-Fluoro-benzyl)-6-hydroxy-4-oxo-3-aza-tricyclo[6.2.1.0^2,7]undeca-5,9-dien-5-yl]-1,1-dioxo-1,4-dihydro-1λ^6-thieno[2,3-e][1,2,4]thiadiazin-7-ylmethyl}-methanesulfonamide], not above 5 nM. On to `Cc1cc(CN2C(=O)C(C3=NS(=O)(=O)c4c(CNS(C)(=O)=O)csc4N3)=C(O)C3CCCCC32)ccc1F` (racemic) [Example 131, (rac-cis)-N-{3-[1-(4-Fluoro-3-methyl-benzyl)-4-hydroxy-2-oxo-1,2,4a,5,6,7,8,8a-octahydro-quinolin-3-yl]-1,1-dioxo-1,4-dihydro-1λ^6-thieno[2,3-e][1,2,4]thiadiazin-7-ylmethyl}-methanesulfonamide], for which the concentration for a half-maximal effect (EC50) was 100 to 1000 nM. Next, `CS(=O)(=O)NCc1csc2c1S(=O)(=O)N=C(C1=C(O)[C@@H]3C4CCC(CC4)[C@@H]3N(Cc3ccccc3)C1=O)N2` [Example 48, N-[3-((2S,7R)-3-Benzyl-6-hydroxy-4-oxo-3-aza-tricyclo[6.2.2.0^2,7]dodec-5-en-5-yl)-1,1-dioxo-1,4-dihydro-1λ^6-thieno[2,3-e][1,2,4]thiadiazin-7-ylmethyl]-methanesulfonamide]: not above 5 nM; `COc1cc(CN2C(=O)C(C3=NS(=O)(=O)c4c(CNS(C)(=O)=O)csc4N3)=C(O)[C@@H]3CCC[C@@H]32)ccc1F` [Example 114, (4aR,7aS)-N-{3-[1-(4-Fluoro-3-methoxy-benzyl)-4-hydroxy-2-oxo-2,4a,5,6,7,7a-hexahydro-1H-[1]pyrindin-3-yl]-1,1-dioxo-1,4-dihydro-1λ^6-thieno[2,3-e][1,2,4]thiadiazin-7-ylmethyl}-methanesulfonamide]: 100 to 1000 nM.
